Reference: patent publication US20190358264A1, “METHODS OF TREATING DISEASES ASSOCIATED WITH ILC2 CELLS” (Limm Therapeutics, SA, priority 2016, published 2019)

Columns and labels:
Format in all cases: cell-based, mouse
[1] = system: intestine and lung-derived ILC2s; assay: In vitro activation of purified ILC2s with NmU23, type 2 cytokine mRNA by quantitative RT-PCR
Method: For in vitro experiments, purified lung and small intestine lamina propria ILC2s were FBS starved for 2 hours prior to stimulation and cultured in complete RPMI (supplemented with 10% foetal bovine serum (FBS), 1% hepes, sodium pyruvate, glutamine, streptomycin and penicillin) at 37° C. For mRNA analysis, ILC2s were stimulated overnight with recombinant mouse Neuromedin U 23 peptide (NmU23, 100 ng/mL; Phoenix pharmaceuticals). Both NmU23-stimulated and control ILC2s were cultured in the presence of IL-2 and IL-7 (10 ng/mL; Peprotech). ILC2s were lysed using RLT buffer (Qiagen). For cytokine protein analysis, ILC2s were incubated exclusively with brefeldin A (eBioscience) for 12 hours prior to intracellular staining. For in vivo experiments, B6 mice were injected intraperitoneal with NmU23 peptide (2 g/day) during Nippostrongylus brasiliensis infection or with a single dose of NmU23 (20 μg) and analyzed after 8 hours. Control mice were treated with PBS alone. Total RNA was extracted using RNeasy micro kit (Qiagen) according to the manufacturer's protocol. RNA concentration was determined using Nanodrop Spectrophotometer (Nanodrop Technologies). Quantitative real-time RT-PCR was performed as previously described^5,8. Hprt1, Gapdh and Eef1a1 were used as housekeeping genes. For TaqMan assays (Applied Biosystems) RNA was retro-transcribed using a High Capacity RNA-to-cDNA Kit (Applied Biosystems), followed by a pre-amplification PCR using TaqMan PreAmp Master Mix (Applied Biosystems). TaqMan Gene Expression Master Mix (Applied Biosystems) was used in real-time PCR. TaqMan Gene Expression Assays (Applied Biosystems) were the following: Hprt1 Mm00446968_m1; Gapdh Mm99999915_g 1; Eef1a1 Mm01973893_g 1; Il5 Mm00439646_m1; Il13 Mm00434204_m1; Areg Mm01354339_m1; 114 Mm00445259_m1; Csf2 Mm01290062_m1; Gata3 Mm00484683_m1; Rora Mm01173766_m1; Nmu Mm00479868_m1; Nmur1 Mm04207994_m1. Real-time PCR analysis was performed using StepOne Real-Time PCR system (Applied Biosystems).

ERK1/2 = assay: ERK phosphorylation in purified ILC2s activated with NmU23; conditions: NmU23 100 ng/mL, 10 minutes, with IL-2 and IL-7
Method: Purified ILC2s from small intestine and lung were FBS starved for 2 hours before in vitro activation with NmU23 at 37° C. To test for ERK phosphorylation (Cell Signaling Technology), purified ILC2s were activated with NmU23 (100 ng/mL; Phoenix pharmaceuticals) in the presence of IL-2 and IL-7 (10 ng/mL; Peprotech) for 10 minutes prior to intracellular staining. To test ERK, calcineurin and NFAT activation, ILC2s were cultured for 1 hour with their respective inhibitor and then stimulated with NmU23 overnight before mRNA expression analysis. ERK inhibitor—PD98059 (Sigma); Calcineurin inhibitor—FK506 (Tocris Bioscience); NFAT inhibitor—11R-VIVIT (Tocris Bioscience).

NFAT = NFAT translocation in ILC2 by confocal microscopy; conditions: NmU23 100 ng/mL, 90 minutes, Lamina Propria ILC2, anti-NFAT2 staining (FIG. 11c)
Method: FIGS. 11a-11b: ILC2 were FBS deprived for 2 hours prior to treatment with either (FIG. 11a) 11R-VIVIT (inhibits NFAT activation) (10 μM) or (FIG. 11b) cyclosporin A (CsA, […]). Expression of type 2 cytokines were measured by quantitative RT-PCR (FIGS. 11a,11b). n=3-6. FIG. 11c, Deprivated ILC2 from Lamina Propria were stimulated 90′ with NmU23 (100 ng/mL), fixed, permeabilized and stained with anti-NFAT2 monoclonal antibody (abcam). Cells were analyzed by confocal microscopy. *P<0.05; **P<0.01; ***P<0.001; ****P<0.0001; ns not significant.

recombinant mouse Neuromedin U 23 peptide (FKAEYQSPSVGQSKGYFLFRPRN; listed as Mus musculus) [NmU23, NMUR1 agonist neuropeptide, Phoenix pharmaceuticals]
innate Il5 and Il13 gene expression in intestinal ILC2 ([1]; NmU23 100 ng/mL in vitro (FIG. 9f)): immediate innate Il5 and Il13 upregulation
expression of type 2 cytokines genes Il5, Il13, Areg and Csf2 in ILC2s ([1]; NmU23 100 ng/mL overnight, with IL-2 and IL-7, intestine and lung ILC2s): prompt and very potent expression
expression of the master type 2 transcription factor Gata3 in ILC2s ([1]; NmU23 100 ng/mL overnight, intestine and lung ILC2s): increased expression
ERK1/2 activation (pERK) in ILC2s (ERK1/2): immediate and efficient ERK1/2 activation
translocation of NFAT in ILC2 (NFAT): efficient translocation of NFAT from the cytoplasm to the nucleus
